# Laboratory results taken from publication PMC10539501 (Nature Communications, 2023).
# Starred links: 1 amine or outer side, 2 acyl side, 3 side chain; linkers in the order of their positions; H or OH if unused. Non-standard residues stand in square brackets, D forms with d. Residues, ends and D or L forms follow the SMILES beside them. X3 = CC(C)C[C@H](N[*:1])C(=S)N[C@H](CC(C)C)C(=O)[*:2]; NMeL = CN[C@@H](CC(C)C)C(=O)O
# Assays:
# [1] = HDX of amide protons by NMR in CDCl3:CD3OD (8:2)
# Method: (§1) As hydrogen bonding and solvation of NH groups play an important role in the permeability of macrocycles, we determined the solvent accessibility of individual amide protons in 10 and 10a–10f by hydrogen-deuterium exchange (HDX) through NMR spectroscopy (Figs. 2a–c).
# (§2) Spectra were recorded on a Bruker AV 500 MHz spectrometer at 25 °C.
# in vitro [2] = details: human, microsomes
# Method: (§3) A stability assessment of the peptides was done in simulated gastric (SGF) and intestinal (SIF) fluids and human liver microsomes. The degradation kinetics of the aliquoted samples at desired time points were analyzed through RP-HPLC.
# [3] = PAMPA passive permeability; type: in vitro ADME; details: for Papp: Pe Avg;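 on all read-outs here: passive permeability across an artificial membrane in 96-well pre-coated PAMPA plates, which lack transporters and efflux systems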
# Method: Encouraged by this, the passive permeability of the analogs was evaluated using an artificial membrane (PAMPA), which measures permeability of compounds in the absence of transporters and efflux systems[32].
# 96-well BD Corning® pre-coated PAMPA plates were used following the supplier’s protocol, details in Supplementary Information.
# [4] = type: physicochemical
# Caco-2 cells = experiment: in vitro; type: in vitro ADME, human; details: Caco-2
# Method: (§4) The Caco-2 cell (HTB-37^TM from ATCC, procured from NCCS, Pune) monolayer was washed and pre-incubated at 37 °C and 5% CO2 for 30 min with HBSS-HEPES buffer containing 1% DMSO prior to experimentation. The assay was performed 21 days post-seeding of cells. TEER values were measured before starting and after the completion of the assay. Acceptor and donor well concentrations of the peptides and controls were assessed through LC-MS/MS.
# in vitro [5] = type: in vitro ADME, human
# Method: as §4
# physchem = details: pH 7.4
# in vitro [6] = details: both, human, plasma
# [7] = type: physicochemical; remark: listed apart in the source
# in vitro [8] = details: pig, simulated intestinal fluid
# in vivo = details: male, Wistar, rat
# Method: (§5) All animals were housed individually in the animal facility at Anthem Biosciences Pvt. Ltd and were acclimatized for 3 days. All animals were fasted overnight before dosing, whereas access to water was provided ad libitum. Peptides were administered orally and via s.c. route and blood samples were collected at different time points through a jugular vein catheter.
# [9] = HDX of amide protons by NMR in DMSO-d6:D2O (8:2); details: HDX by NMR, 20% D2O in DMSO-d6
# Method: as §1, §2
# pepsin [10] = target: T1, pepsin (Sus scrofa, UniProt P00791); experiment: in vitro; details: simulated gastric fluid, pH 1.2
# T1 sequence (P00791 60-385): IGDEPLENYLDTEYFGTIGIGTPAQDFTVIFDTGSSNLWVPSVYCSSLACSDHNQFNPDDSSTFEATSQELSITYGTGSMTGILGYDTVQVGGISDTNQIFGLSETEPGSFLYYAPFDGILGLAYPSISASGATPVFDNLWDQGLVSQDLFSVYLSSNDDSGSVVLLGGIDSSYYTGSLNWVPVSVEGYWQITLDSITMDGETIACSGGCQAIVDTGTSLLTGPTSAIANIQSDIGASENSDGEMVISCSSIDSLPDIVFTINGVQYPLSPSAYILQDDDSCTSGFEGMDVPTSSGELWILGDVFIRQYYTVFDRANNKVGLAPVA
# Method: as §3
# [11] = Retention in hydrophobic C18 column by HPLC; details: Supplementary Fig 3d, logD7.4 vs tR
# in vitro [12] = details: both, human, plasma; remark: listed apart in the source
# Method: Blood was freshly drawn from three healthy adults, two male and one person of 26–28 year old. […] The plasma was separated by centrifugation. […] For checking metabolic stability, the required volume of plasma was pre-incubated at 37 °C prior to the experiment for 2 min, followed by spiking with the peptides. At different time points, plasma was aliquoted. The supernatant was separated and used for RP-HPLC quantification. Rapid Equilibrium Dialysis (RED) assay was performed to assess the plasma protein binding of the peptides following the supplier’s protocol.
# [13] = rat, in vivo, po, 10 mg/kg
# Method: as §5
# pepsin [14] = target: T1, pepsin; details: pH 1.2
# Method: as §3
# [15] = 20% CD3OD in CDCl3, % remaining after 24 hours
# 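Wherever Papp A-B avg (second block) is given: Caco-2 monolayers used 21 days after seeding in HBSS-HEPES buffer with 1% DMSO, donor and acceptor levels quantified by LC-MS/MS, TEER checked before and after.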
# 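Wherever Papp A-B set 1 (second block) is given: Caco-2 monolayers used 21 days after seeding in HBSS-HEPES buffer with 1% DMSO, donor and acceptor levels quantified by LC-MS/MS, TEER checked before and after.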
# 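Wherever Papp A-B set 2 (second block) is given: Caco-2 monolayers used 21 days after seeding in HBSS-HEPES buffer with 1% DMSO, donor and acceptor levels quantified by LC-MS/MS, TEER checked before and after.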
# 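Wherever Papp B-A avg (second block) is given: Caco-2 monolayers used 21 days after seeding in HBSS-HEPES buffer with 1% DMSO, donor and acceptor levels quantified by LC-MS/MS, TEER checked before and after.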
# Method for human liver microsomes: as §3
compound,measurement,setting,value
CC(C)C[C@@H]1NC(=O)[C@@H](CC(C)C)NC(=S)[C@H](CC(C)C)NC(=O)[C@H](Cc2ccc(O)cc2)NC(=O)[C@H]2CCCN2C(=O)[C@H](CC(C)C)NC1=O [10f] (cyclo(LL[dP]Y[X3])),Half-life of D-Leu1 amide proton (HDX),[1]; 20% CD3OD in CDCl3,0.167 h
same,Half-life of Leu2 amide proton (HDX),[1]; 20% CD3OD in CDCl3,8.33 h
same,Half-life of Leu3 amide proton (HDX),[1]; 20% CD3OD in CDCl3,3.27 h
same,Half-life of Leu6 amide proton (HDX),[1]; 20% CD3OD in CDCl3,> 24 h
same,Half-life of Tyr5 amide proton (HDX),[1]; 20% CD3OD in CDCl3,> 24 h
same,"% intact NH, Leu6",[1]; [15],52%
same,"% intact NH, Tyr5",[1]; [15],67%
same,microsomal CLint,in vitro [2],33 µL/min/mg
same,remaining at 5 min,in vitro [2],78%
same,remaining at 10 min,in vitro [2],71%
same,remaining at 20 min,in vitro [2],62%
same,remaining at 0.5 h,in vitro [2],56%
same,remaining at 0.75 h,in vitro [2],48%
same,remaining at 1 h,in vitro [2],38%
same,Pe Avg,[3],7.3 ×10⁻⁶ cm/s
same,Pe set1,[3],7.27 ×10⁻⁶ cm/s
same,Pe set2,[3],9.86 ×10⁻⁶ cm/s
same,Pe set3,[3],4.7 ×10⁻⁶ cm/s
same,Papp,[3],7.3 ×10⁻⁶ cm/s
same,% solubility,[4],23%
same,Papp A-B avg (second block),Caco-2 cells,3.01 ×10⁻⁶ cm/s
same,Papp A-B set 1 (second block),Caco-2 cells,4.57 ×10⁻⁶ cm/s
same,Papp A-B set 2 (second block),Caco-2 cells,1.45 ×10⁻⁶ cm/s
same,Papp B-A avg (second block),Caco-2 cells,41.8 ×10⁻⁶ cm/s
same,Papp B-A set 1 (second block),Caco-2 cells,39.7 ×10⁻⁶ cm/s
same,Papp B-A set 2 (second block),Caco-2 cells,43.9 ×10⁻⁶ cm/s
same,Papp A→B,"in vitro [5]; Caco-2, Papp A-B + Elacridar avg",6.8 ×10⁻⁶ cm/s
same,Papp A→B,"in vitro [5]; Caco-2, Papp A-B avg",3.01 ×10⁻⁶ cm/s
same,Papp B→A,"in vitro [5]; Caco-2, Papp B-A + Elacridar avg",8.9 ×10⁻⁶ cm/s
same,Papp B→A,"in vitro [5]; Caco-2, Papp B-A avg",41.8 ×10⁻⁶ cm/s
same,logD,physchem,1.53
same,Protein binding set1,plasma proteins,100%
same,Protein binding set2,plasma proteins,100%
same,Protein binding set3,plasma proteins,95%
same,fraction unbound,in vitro [6],0.02
same,logD heptane ethylene glycol,[7],1.08
same,half-life,in vitro [8],2.1 h
same,remaining at 10 min,in vitro [8],80.9%
same,remaining at 0.5 h,in vitro [8],67.2%
same,remaining at 1 h,in vitro [8],56.5%
same,remaining at 2 h,in vitro [8],48.1%
same,remaining at 4 h,in vitro [8],42.9%
same,remaining at 8 h,in vitro [8],31.7%
same,remaining at 12 h,in vitro [8],24.6%
same,remaining at 24 h,in vitro [8],17.2%
same,AUC(0-t),in vivo; iv,390 ng·h/mL
same,Cmax,in vivo; iv,580 ng/mL
same,MRT,in vivo; iv,1.1 h
same,Vd,in vivo; iv,3.2 L/kg
same,clearance,in vivo; iv,42.2 mL/min/kg
same,bioavailability,in vivo; po,3.1%
same,AUC(0-t),"in vivo; po, 10 mg/kg",121 ng·h/mL
same,Cmax,"in vivo; po, 10 mg/kg",61.7 ng/mL
same,MRT,"in vivo; po, 10 mg/kg",2.1 h
same,level at 3 h,"in vivo; po, 10 mg/kg",13.1 ng/mL
same,Half-life of D-Leu1 amide proton (HDX),[9],1 min
same,Half-life of Leu2 amide proton (HDX),[9],11.7 h
same,Half-life of Leu3 amide proton (HDX),[9],13.2 h
same,Half-life of Leu6 amide proton (HDX),[9],12 h
same,Half-life of Tyr5 amide proton (HDX),[9],18 h
same,half-life,pepsin [10],1.3 h
same,remaining at 5 min,pepsin [10],78%
same,remaining at 10 min,pepsin [10],73%
same,remaining at 20 min,pepsin [10],67%
same,remaining at 0.5 h,pepsin [10],61%
same,remaining at 1 h,pepsin [10],54%
same,remaining at 2 h,pepsin [10],44%
same,remaining at 4 h,pepsin [10],34%
same,remaining at 8 h,pepsin [10],24%
same,remaining at 12 h,pepsin [10],15%
same,remaining at 24 h,pepsin [10],9%
same,tR,[11],14 min
same,half-life,in vitro [12],18 h
same,remaining at 1 h,in vitro [12],92%
same,remaining at 3 h,in vitro [12],87%
same,remaining at 5 h,in vitro [12],84%
same,remaining at 7 h,in vitro [12],79%
same,remaining at 9 h,in vitro [12],63%
same,remaining at 12 h,in vitro [12],54%
same,remaining at 24 h,in vitro [12],38%
same,remaining at 36 h,in vitro [12],22%
same,remaining at 48 h,in vitro [12],25%
same,remaining at 60 h,in vitro [12],26%
same,remaining at 72 h,in vitro [12],21%
same,Half lives (SIF) Avg,pancreatin,128 min
same,Half lives (SIF) set1,pancreatin,184 min
same,Half lives (SIF) set2,pancreatin,94 min
same,Half lives (SIF) set3,pancreatin,108 min
same,AUClast p.o,[13],120.8 ng·h/mL
same,time over which the peptide is detectable in plasma,[13],≥ 8 h
same,Half lives,human liver microsomes,42.3
CC(C)C[C@@H]1NC(=O)[C@H](Cc2ccc(O)cc2)NC(=O)[C@H]2CCCN2C(=O)[C@H](CC(C)C)NC(=O)[C@H](CC(C)C)N(C)C(=O)[C@@H](CC(C)C)NC1=O [10h] (cyclo(L[dL][NMeL]L[dP]Y)),microsomal CLint,in vitro [2],49 µL/min/mg
same,remaining at 2 min,in vitro [2],99%
same,remaining at 10 min,in vitro [2],94%
same,remaining at 20 min,in vitro [2],65%
same,remaining at 0.5 h,in vitro [2],49%
same,remaining at 0.75 h,in vitro [2],27%
same,remaining at 1 h,in vitro [2],13%
same,Papp,[3],9.07 ×10⁻⁶ cm/s
same,Half lives (SGF) Avg,pepsin [14],65.5 min
same,Half lives (SGF) set1,pepsin [14],52 min
same,logD,physchem,1.46
same,fraction unbound,in vitro [6],0.3
same,half-life,in vitro [8],0.933 h
same,remaining at 10 min,in vitro [8],71%
same,remaining at 0.5 h,in vitro [8],63%
same,remaining at 1 h,in vitro [8],47%
same,remaining at 2 h,in vitro [8],27%
same,remaining at 4 h,in vitro [8],16%
same,remaining at 8 h,in vitro [8],2.66%
same,remaining at 12 h,in vitro [8],1%
same,AUC(0-t),in vivo; iv,212 ng·h/mL
same,Cmax,in vivo; iv,435 ng/mL
same,MRT,in vivo; iv,0.4 h
same,Vd,in vivo; iv,2.3 L/kg
same,clearance,in vivo; iv,79.5 mL/min/kg
same,bioavailability,in vivo; po,1.2%
same,AUC(0-t),"in vivo; po, 10 mg/kg",25.9 ng·h/mL
same,Cmax,"in vivo; po, 10 mg/kg",13.1 ng/mL
same,MRT,"in vivo; po, 10 mg/kg",1.3 h
same,level at 3 h,"in vivo; po, 10 mg/kg",3.2 ng/mL
same,remaining at 2 min,pepsin [10],97%
same,remaining at 10 min,pepsin [10],89%
same,remaining at 20 min,pepsin [10],79%
same,remaining at 0.5 h,pepsin [10],67%
same,remaining at 1 h,pepsin [10],57%
same,remaining at 2 h,pepsin [10],26%
same,remaining at 4 h,pepsin [10],16%
same,remaining at 8 h,pepsin [10],8%
same,remaining at 12 h,pepsin [10],3%
same,half-life,in vitro [12],18 h
same,remaining at 2 h,in vitro [12],89%
same,remaining at 4 h,in vitro [12],77%
same,remaining at 8 h,in vitro [12],68%
same,remaining at 16 h,in vitro [12],56%
same,remaining at 24 h,in vitro [12],30%
same,remaining at 48 h,in vitro [12],13%
same,remaining at 72 h,in vitro [12],3.27%
same,Fold Change of AUClast p.o,[13],29
same,Half lives,human liver microsomes,28.7
